The results in this text go back to US12171821B2, “Toxoplasma gondii vaccine” (priority 2018, dated 2024).

In the experiment the test system is T. gondii ME49 bradyzoites. The experiment can be described thus: Real-time PCR on ileum cDNA of infected Z-DNA binding protein knock out mice. The settings on record: homogenized mouse ileum cDNA. The class given is in vivo, Toxoplasma gondii. On the procedure:
Delta-6-desaturase inhibition. SC 26196 (Cayman) was solubilized in DMSO and used at 20 μM in mouse organoid monolayers. For in vivo treatment, the inhibitor was solubilized in 0.5% m/v methylcellulose and the mice were given 50 mg/kg every 12 hours by oral gavage (He et al., 2012). 4-week old C57BL/6J female mice deleted in Z-DNA-binding protein (Pittman et al., 2016) were divided into four different groups: uninfected control, T. gondii-infected without fatty acid supplementation, T. gondii infected with linoleic acid supplementation, and T. gondii-infected with linoleic acid and SC 26196 inhibitor. Each mouse supplemented with linoleic acid received 10 μL of 99% linoleic acid oil (MilliporaSigma Cat #843483) suspended in 0.5% Methylcellulose per day by oral gavage. Mice were infected with 1000 brain cysts purified as described above by oral gavage and euthanized 7 days post infection. Sample size was at least 2 mice per group and the experiment was repeated 5 times. Alternatively, each mouse was infected with one mouse brain at least 2 months postinfection with at least 1000 cysts. Mice were treated with SC 26196 until day 5 postinfection. Feces were collected from days 5-14 and oocysts enumerated by microscopy.
Real-time PCR on ileum cDNA. Z-DNA binding protein deletion mice ice with and without delta-6-desaturase inhibitor treatment were euthanized 7 days post infection. The ileum of each mouse was removed and homogenized in 1 mL of TRIzol. Total RNA was isolated according to manufacturer's protocol (Invitrogen) and treated with amplification grade Dnase I. cDNA was generated using the Invitrogen SuperScript III First-Strand Synthesis kit with random hexamer primers. GRA11B and SAG1 were used as markers of sexual and asexual stages, respectively. The T. gondii housekeeping gene TUB1A was used to normalize target gene expression. Real-time quantitative PCR was performed using Bio-Rad iTaq Universal SYBR Green Supermix on 311 an Applied Biosystems StepOnePlus Real-Time PCR system. The efficiency of each primer set was calculated from the slope of a 1:10 dilution standard curve of tachyzoite gDNA, where E=10^(−1/slope). The Pfaffl method (Pfaffl, 2001), which accounts for differences in efficiencies, was then used to calculate the relative gene expression of GRA11B and SAG1 per sample, in triplicate. Only wells with one melt curve temperature were used, indicating a single product. Primer sequences were as follows:
Statistical methods. All real-time PCR fecal samples were run in triplicate technical replicates. The difference between the mean target gene copy numbers was analyzed by two-tailed unpaired t tests. The real-time PCR intestinal samples were run in triplicate from two biological replicates per group. The difference between the mean relative expression of each target gene was analyzed by two-tailed unpaired t tests.
(Real-time PCR tracks product formation cycle by cycle.)

The mark [1] stands for this setting: 7 days post infection, Mouse 1 and Mouse 2, wells 1-3.

Several values for one entry are separate records, joined by “and”; a condition that tells them apart may be missing. Equal values may be shown once.

Consider `CCCCC/C=C\C/C=C\CCCCCCCC(=O)O` [linoleic acid], for which, under setting [1], the “GRA11B raw Ct values” was 33.43 and 36.02 and 35.59 and 38.24 and 39.05; the “SAG1 raw Ct values” is 32.63 and 31.52 and 32.31 and 31.46 and 32.97 and 31.72. Moreover, under “Mouse 1 and Mouse 2”, the “GRA11B Ct mean” value is 37.13 and 36.02; the “SAG1 Ct mean” value is 32.63 and 31.57.
